How the values were obtained:
K562 cells = assay: Erythroid differentiation assay in K562 cells (hemin; hemoglobin accumulation, western blot); format: cell-based, human
Protocol: FIG. 1. ZAKα/P38 signaling pathway is activated in K562 after erythroid differentiation and its inhibition facilitates terminal erythroid differentiation. K562 cells were pre-treated with 0.1 μM nilotinib (Nil) (A, C, D), 1 μM anisomycin (B) and/or the indicated concentrations of the […] CX-5461 for 24 h, and then differentiated with 50 μM hemin for another 24 h. Hemoglobin accumulation (A, B, D) and NLRP1, phosphorylated P38, GATA1, ZAKα and ACTB (A-C) amounts were then evaluated by western blot. Immunoblots are representative of 3 independent experiments. #1, ACTB; #2, GATA1.
FIG. 2. The ZAKα/P38 signaling pathways is activated in K562 after erythroid differentiation. K562 cells were pre-treated with 0.1 μM nilotinib for 24 h and then differentiated with 50 μM hemin for the indicated times. The amounts of NLRP1, GATA1, phosphorylated P38, total ZAKα, phosphorylated ZAKα (Phos-tag) and ACTB were then evaluated by western blot.
(§1) FIG. 10. Imatinib and dasatinib promote erythropoiesis in human and zebrafish. (A) K562 cells were pretreated with the indicated concentrations of nilotinib, imatinib or dasatinib for 24 h and then differentiated with 50 μM hemin for 24 h. The amounts of NLRP1, GATA1, phosphorylated P38, total ZAKα and ACTB were then evaluated by western blot. (B) Zebrafish larvae were treated from 1 to 2 dpf with the indicated concentrations of nilotinib, imatinib or dasatinib. Representative images and number of neutrophils in larvae of 2 dpf treated by bath immersion with the indicated concentrations of imatinib and dasatinib. Each dot represents one individual and the mean±SEM for each group is also shown. P values were calculated by one-way ANOVA and Tukey's multiple range test. n.s., non-significant. ***P<0.001; ****P<0.0001.
(§2) FIG. 11. Ponatinib and bosutinib promote erythropoiesis in human and zebrafish. (A) K562 cells were pretreated with the indicated concentrations of nilotinib, ponatinib and bosutinib for 24 h and then differentiated with 50 μM hemin for the indicated times. The amounts of NLRP1, total ZAKα, GATA1, phosphorylated P38 and ACTB were then evaluated by western blot. (B) Number of neutrophils in larvae of 2 dpf treated by bath immersion with the indicated concentrations of ponatinib and bosutinib. Each dot represents one individual and the mean±SEM for each group is also shown. P values were calculated by one-way ANOVA and Tukey's multiple range test. n.s., non-significant, *P<0.05. **P<0.01. ***P<0.001.
K562 cells (CRL-3343; American Type Culture Collection) were maintained in RPMI culture medium supplemented with 10% fetal calf serum (FCS), 2 mM Glutamine, and 1% penicillin-streptomycin (Life Technologies). Cells were maintained and subcultured before confluence every 72 h. For differentiation, cells were treated with 50 μM hemin (#16009-13-5, Sigma-Aldrich) in the presence of 0.1% DMSO alone or with the caspase-1 inhibitor VX-765 (100 μM), the tyrosine kinase inhibitor nilotinib (0.1 μM), the RNA polymerase I inhibitor CX-5461 (200 nM, 1 μM and 10 μM) (all from MedChemExpress). Cells were collected at different time points (0, 24, 48 hours post-hemin addition), centrifuged, washed twice with PBS, and stored at −80° C. for further analysis.
Cells were lysed in 50 mM Tris-HCl (pH 7.5), 150 mM NaCl, 1% (w/v) NP-40 and fresh protease inhibitor (1/20, #P8340, Sigma-Aldrich). Protein quantification was performed with the BCA kit using BSA as standard. Cell lysates ([…]) in SDS sample buffer were subjected to electrophoresis on a polyacrylamide gel and transferred to nitrocellulose membranes. The membranes were incubated for 1 h with TTBS containing 5% (w/v) skimmed dried milk powder or 2% (w/v) BSA. The membranes were immunoblotted in the same buffer 16 h at 4° C. with the different primary antibodies diluted 1/1000. The blots were then washed with TTBS and incubated for 1 h at room temperature with secondary HRP-conjugated antibodies diluted 2,500-fold in 5% (w/v) skimmed milk in TTBS. […]

zebrafish larvae = assay: Chemical treatment of zebrafish larvae by bath immersion; counting of neutrophils and erythrocytes; format: in vivo, Zebrafish (Danio rerio H.)
Protocol: FIG. 3. ZAKα regulates hematopoiesis in zebrafish through the Nlrp1 inflammasome. Number of neutrophils (B, D, H), erythrocytes (F) and macrophages (J), and caspase-1 activity (K) in 2 dpf larvae either treated from 1 to 2 dpf by bath immersion with 1 μM nilotinib and/or 100 μM anisomycin (A-D) or obtained by injecting one-cell stage embryos with standard or zaka crRNAs/Cas9 complexes (E-K). Representative images of neutrophils (A, C, G), erythrocytes (E) and macrophages (I) are also shown. Each dot represents one individual and the mean±SEM for each group is also shown. P values were calculated using one-way ANOVA and Tukey's multiple range test (B) or Student's t-test (D, F, H, J, K). n.s., non-significant; *P<0.05; **P<0.01; ***P<0.001.
FIG. 6. NLRP1 is activated by phosphorylation of the linker domain after activation of ZAKα and pharmacological inhibition of this signaling pathway promotes erythropoiesis in DBA. (A-D) Number of neutrophils (A-C), and caspase-1 activity (D) in 2 dpf larvae obtained by injection of one-cell stage embryos with human NLRP1 (wild type-WT, S107A and S107D) and treated from 1 to 2 dpf by bath immersion with 1 μM nilotinib (B-D). Representative images of neutrophils (arrows) are also shown in C. (E, F) BMMCs from a DBA patient were incubated for 2 weeks in human methylcellulose complete medium at 37° C. in the presence or absence of the indicated concentrations of nilotinib, and colonies were counted using standard morphological criteria. Each dot represents one individual and the mean±SEM for each group is also shown. P values were calculated by one-way ANOVA and Tukey's multiple range test. n.s., non-significant; *P<0.05; **P<0.01; ***P<0.001; ****P<0.0001.
as §1, §2
Zebrafish (Danio rerio H.) were obtained from the Zebrafish International Resource Center and mated, staged, raised and processed as described in The Zebarfish Book. The lines Tg(mpx:eGFP)^t114, Tg(lyz:DsRED2)^n250, Tg(mfap4:mCherry)^ump6, Tg(gata1a:DsRed)^sd2 Tg(runx1:GAL4)^utn6), Tg(UAS-E1B:NTR-mCherry) and casper (mitfa^w2/w2; mpv17^a9/a9) were previously described. spint1a^hi2217Tg/hi2217Tg was isolated from insertional mutagenesis screens. The experiments performed comply with the Guidelines of the European Union Council (Directive 2010/63/EU) and the Spanish RD 53/2013. The experiments and procedures performed were approved by the Bioethical Committees of the University of Murcia (approval number #669/2020). […]

HSPCs from DBA patients = assay: Colony assay of PBMCs from DBA patients in methylcellulose medium; format: cell-based, human; conditions: 2 weeks, indicated concentrations (FIG. 13A)
Protocol: FIG. 13. […] PBMCs from DBA patients were incubated for 2 weeks in human methylcellulose complete medium at 37° C. in the presence or absence of the indicated concentrations of nilotinib, imatinib, dasatinib, bosutinib and ponatinib, and the number of erythroid (A) and myeloid (B) colonies counted using standard morphological criteria. Each dot represents one patient and the means±SEM for each group is also shown.

## Cc1cnc(CNC(=O)c2c(=O)c3ccc(N4CCCN(C)CC4)nc3n3c2sc2ccccc23)cn1 [CX-5461]
K562 cells; CX-5461 at indicated concentrations 24 h, then 50 μM hemin 24 h, hemoglobin accumulation (FIG. 1D)
  erythroid differentiation in K562 cells: impairs erythroid differentiation

## COc1ccc(C[C@H]2NC[C@H](O)[C@H]2OC(C)=O)cc1 [anisomycin]
Zebrafish larvae; larvae 2 dpf, anisomycin
  neutrophil number in Nlrp1- and Zaka-deficient larvae: failed to increase neutrophil number
Zebrafish larvae; wild type larvae 2 dpf, bath immersion 1 to 2 dpf, 1 μM nilotinib, 100 μM anisomycin
  neutrophil number: caused neutrophilia

## Cc1ccc(NC(=O)c2ccc(CN3CCN(C)CC3)cc2)cc1Nc1nccc(-c2cccnc2)n1 [imatinib]
Zebrafish larvae; bath immersion 1 to 2 dpf, imatinib 1 and 10 μM, dasatinib 0.1 and 1 μM (FIG. 10B)
  number of erythrocytes in zebrafish larvae: enhanced the number of erythrocytes
K562 cells; K562 cells, indicated concentrations of TKI 24 h, then 50 μM hemin, western blot (FIG. 10A, 11A)
  GATA1 protein amounts: enhancing GATA1 amount
K562 cells; indicated concentrations of TKI 24 h, then 50 μM hemin (FIG. 10A, 11A)
  erythroid differentiation of K562 cells: promoted erythroid differentiation of K562 cells by blocking the ZAKα/P38 axis
HSPCs from DBA patients
  defective erythropoiesis of HSPCs from DBA patients (erythroid colonies): alleviated defective erythropoiesis

From patent US20260240846A1, “ZAK ALPHA KINASE (MAP3K20) INHIBITORS FOR USE IN THE TREATMENT OF ANEMIA” (UNIVERSIDAD DE MURCIA, priority 2023, published 2026)
